Our source for the TGI and GI50 values is PubChem BioAssay (NCI).

Among the test systems are CAKI-1 renal; IGROV1 ovarian; LOX IMVI melanoma; MOLT-4 leukemia; NCI-H460 lung; PC-3 prostate; SK-MEL-5 melanoma; TK-10 renal; UACC-62 melanoma; OVCAR-5 ovarian.
Assay in all cases: DTP human tumour cell line panel, 48 h

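Growth conditions: 96-well plates. Treatment: test compound, 48 hours, 5 concentrations. Analysis: linear interpolation between bracketing concentrations; unreached endpoints set to highest concentration. Abbreviation: GI50, concentration required for 50% inhibition of growth. TGI: total growth inhibition.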

Usually TGI stands for the concentration giving total growth inhibition. The low end stands for more potent growth arrest, the high end for less potent growth arrest. The GI50 is the concentration at which growth is held to half of that of the control.

As to `COc1ccc(-n2c3c(c4cc(O)ccc42)Cc2ccccc2C3=O)cc1`, the TGI in the experiment on CAKI-1 renal was above 100 µM; in the experiment with IGROV1 ovarian, above 100 µM; in the experiment with LOX IMVI melanoma it was above 100 µM; in the experiment on MOLT-4 leukemia it was above 100 µM; in the experiment on NCI-H460 lung, above 100 µM; with PC-3 prostate it was 15.3 µM. Also, the TGI in the experiment with SK-MEL-5 melanoma, with TK-10 renal and with UACC-62 melanoma was above 100 µM in each case.
Regarding `CCOCC(=O)N(C)c1cccc2c3c(n(C)c12)CCCCC3`, the TGI in the experiment with CAKI-1 renal, with IGROV1 ovarian, with LOX IMVI melanoma, with MOLT-4 leukemia, with NCI-H460 lung and in the experiment on OVCAR-5 ovarian was above 100 µM in each case. Also, the TGI in the experiment with SK-MEL-5 melanoma and in the experiment with UACC-62 melanoma was above 100 µM each time.
For the compound `CC1C(=O)c2cc3c(cc2CCN(C)Cc2c1ccc1c2OCO1)OCO3` (centres undefined), the GI50 was above 75 µg/mL in the experiment with CAKI-1 renal; above 75 µg/mL in the experiment on IGROV1 ovarian; 18.6 µg/mL in the experiment with LOX IMVI melanoma; 21.8 µg/mL in the experiment with MOLT-4 leukemia; 40.3 µg/mL in the experiment with NCI-H460 lung; above 75 µg/mL with OVCAR-5 ovarian. Besides, the GI50 with PC-3 prostate was 24 µg/mL; in the experiment with SK-MEL-5 melanoma it was 37.1 µg/mL; with TK-10 renal, above 75 µg/mL; in the experiment with UACC-62 melanoma, 45.2 µg/mL. Also, the TGI with CAKI-1 renal, with IGROV1 ovarian, with LOX IMVI melanoma, with MOLT-4 leukemia, with NCI-H460 lung and in the experiment on OVCAR-5 ovarian was above 75 µg/mL in each case. The TGI with PC-3 prostate, in the experiment with SK-MEL-5 melanoma, in the experiment on TK-10 renal and in the experiment on UACC-62 melanoma was above 75 µg/mL each time.
As to `O=C(O)C1CCCCN1C(=O)Cc1c[nH]c2ccccc12` (centres undefined), the TGI with CAKI-1 renal, in the experiment with IGROV1 ovarian, with LOX IMVI melanoma, with MOLT-4 leukemia, with NCI-H460 lung and in the experiment with OVCAR-5 ovarian was above 100 µM in each case. Also, the TGI with PC-3 prostate, in the experiment with TK-10 renal and in the experiment on UACC-62 melanoma was above 100 µM each time.
For the compound `Cc1oc(N)c(S(=O)(=O)c2cc3ccccc3n(O)c2=N)c1C`, the TGI in the experiment with CAKI-1 renal, in the experiment with IGROV1 ovarian, in the experiment on LOX IMVI melanoma, with MOLT-4 leukemia, in the experiment with NCI-H460 lung and with OVCAR-5 ovarian was above 100 µM throughout. Also, the TGI in the experiment on PC-3 prostate, with SK-MEL-5 melanoma, with TK-10 renal and in the experiment with UACC-62 melanoma was above 100 µM in each case.
Consider `CCOC(=O)c1c(-c2cccc(Cl)c2)c(C(=O)OC)c(C)c2sc(C=O)nc12`, for which the TGI in the experiment on CAKI-1 renal turned out to be 43 µM; with IGROV1 ovarian, 32.9 µM; in the experiment on LOX IMVI melanoma, 28.9 µM; in the experiment with MOLT-4 leukemia, 48.1 µM; in the experiment on NCI-H460 lung it was 50.1 µM; with OVCAR-5 ovarian it was 35.7 µM. Moreover, the TGI is 37.5 µM with PC-3 prostate, 30.4 µM with SK-MEL-5 melanoma, 50 µM in the experiment on TK-10 renal and 32.2 µM in the experiment with UACC-62 melanoma.
On to `O=C1/C(=C/c2[nH]ncc2-c2ccc(Cl)cc2)C(=O)N(c2ccccc2)C1c1ccccc1` (centres undefined), for which the TGI in the experiment with CAKI-1 renal was 31.1 µM; with IGROV1 ovarian, 45.1 µM; in the experiment with LOX IMVI melanoma it was 32.4 µM; in the experiment with MOLT-4 leukemia, 41 µM; with NCI-H460 lung it was above 100 µM; in the experiment with PC-3 prostate it was above 100 µM. Besides, the TGI is 27.5 µM in the experiment with SK-MEL-5 melanoma, above 100 µM in the experiment with TK-10 renal and 27.8 µM in the experiment with UACC-62 melanoma.
On to `Cc1n[n+]([O-])c(C)cc1[N+](=O)[O-]`, for which the TGI in the experiment on IGROV1 ovarian amounted to 49 µM; in the experiment on LOX IMVI melanoma it was 57.9 µM; with NCI-H460 lung, 28.4 µM; in the experiment with OVCAR-5 ovarian it was 36.8 µM; in the experiment with PC-3 prostate, 65.2 µM; in the experiment on SK-MEL-5 melanoma, 29.8 µM. The TGI in the experiment with TK-10 renal came to 24.5 µM; in the experiment with UACC-62 melanoma, 31.5 µM.
Consider `COC(=O)c1cc(NC(=O)c2cc(NC(=O)Cc3c[nH]c4ccccc34)cn2C)cn1C`, for which the TGI in the experiment with CAKI-1 renal was above 100 µM; in the experiment on LOX IMVI melanoma it was above 100 µM; with MOLT-4 leukemia, above 100 µM; in the experiment with NCI-H460 lung, above 100 µM; with OVCAR-5 ovarian, above 100 µM; in the experiment on PC-3 prostate, 96.2 µM. The values for the TGI with SK-MEL-5 melanoma, in the experiment with TK-10 renal and in the experiment on UACC-62 melanoma were 63.8 µM, above 100 µM and 60.8 µM, respectively.
On to `O=C(Cc1csc2nc(-c3ccc(Cl)cc3)cn12)N/N=C/c1ccccc1O`, for which the GI50 is 0.782 µM in the experiment on CAKI-1 renal; 3.05 µM with IGROV1 ovarian; 1.93 µM with LOX IMVI melanoma; 2.17 µM in the experiment on MOLT-4 leukemia; 1.39 µM in the experiment on NCI-H460 lung; 38.8 µM with OVCAR-5 ovarian. Besides, the results for the GI50 with PC-3 prostate, in the experiment with SK-MEL-5 melanoma and in the experiment with UACC-62 melanoma were 3.46 µM, 2.93 µM and 3.42 µM, respectively. Besides, the TGI in the experiment with CAKI-1 renal was 16 µM; with IGROV1 ovarian it was above 100 µM; in the experiment with LOX IMVI melanoma, 36.1 µM; with MOLT-4 leukemia it was above 100 µM; in the experiment on NCI-H460 lung, above 100 µM; with OVCAR-5 ovarian, above 100 µM. Besides, the figures for the TGI in the experiment with PC-3 prostate, in the experiment with SK-MEL-5 melanoma and with UACC-62 melanoma were above 100 µM, above 100 µM and 38.9 µM, respectively.
On to `N#Cc1ccccc1C#C/C=C\C#Cc1ccccc1N`, for which the GI50 was 0.129 µM with CAKI-1 renal; 4.04 µM with LOX IMVI melanoma; 3.68 µM in the experiment on MOLT-4 leukemia; 5.43 µM in the experiment with NCI-H460 lung; 5 µM with OVCAR-5 ovarian; 5.99 µM with PC-3 prostate. The values for the GI50 in the experiment on SK-MEL-5 melanoma, in the experiment on TK-10 renal and in the experiment with UACC-62 melanoma were 3.34 µM, 5.02 µM and 3.03 µM, respectively. Also, the concentration for total growth inhibition (TGI) with CAKI-1 renal is 0.634 µM; with LOX IMVI melanoma it was above 35.4 µM; in the experiment on MOLT-4 leukemia, above 100 µM; with NCI-H460 lung, above 100 µM; in the experiment on OVCAR-5 ovarian, above 62.6 µM; in the experiment with PC-3 prostate, above 75.9 µM. In addition, the TGI was 19 µM in the experiment on SK-MEL-5 melanoma, above 49.3 µM with TK-10 renal and above 33.6 µM with UACC-62 melanoma.
On to `Cn1c2[n+](c3nc(N)[nH]c(=O)c31)C1OC(C2)C(O)C1O` (centres undefined), for which the concentration for total growth inhibition (TGI) in the experiment with CAKI-1 renal, in the experiment on IGROV1 ovarian, in the experiment with LOX IMVI melanoma, in the experiment on MOLT-4 leukemia, with OVCAR-5 ovarian and in the experiment with SK-MEL-5 melanoma was above 100 µM throughout. In addition, the TGI in the experiment with TK-10 renal and with UACC-62 melanoma was above 100 µM each time.
Consider `COc1cccc(/C=N/[N-]C(N)=O)c1[O-].[Ni+2].[OH3+]`, for which the TGI with CAKI-1 renal came to 2.19 µM; with IGROV1 ovarian, 0.811 µM; in the experiment with LOX IMVI melanoma it was 2.15 µM; in the experiment on MOLT-4 leukemia it was 1.58 µM; with NCI-H460 lung, 1.65 µM; in the experiment with OVCAR-5 ovarian, 2.55 µM. Further, the TGI in the experiment on SK-MEL-5 melanoma came out at 1.65 µM; in the experiment with TK-10 renal, 2.74 µM; in the experiment with UACC-62 melanoma, 1.35 µM.
On to `CC(C)CC1c2[nH]c3ccccc3c2C[C@H]2C(=O)NC(CCCCNC(=O)OC(C)(C)C)C(=O)N12` (some centres undefined), for which the TGI in the experiment on CAKI-1 renal was above 100 µM; in the experiment with IGROV1 ovarian it was above 100 µM; with LOX IMVI melanoma, above 100 µM; with MOLT-4 leukemia it was 51.8 µM; with OVCAR-5 ovarian, above 100 µM; in the experiment with PC-3 prostate, 65.5 µM. Also, the TGI with SK-MEL-5 melanoma, in the experiment with TK-10 renal and with UACC-62 melanoma was above 100 µM throughout.
Regarding `Cc1ccc(OCC2=NC3S/C(=C/c4ccc([N+](=O)[O-])o4)C(=O)N3N2)cc1` (centres undefined), the TGI worked out at 32 µM in the experiment on CAKI-1 renal; 22.5 µM with IGROV1 ovarian; 13.3 µM in the experiment with LOX IMVI melanoma; 6.94 µM in the experiment with MOLT-4 leukemia; 41.6 µM with NCI-H460 lung; 35.2 µM in the experiment on OVCAR-5 ovarian. Moreover, the TGI came out at 18.2 µM in the experiment on PC-3 prostate, 21.3 µM in the experiment with SK-MEL-5 melanoma and 30.1 µM in the experiment with TK-10 renal.
As to `O=C(O)C(O)C(O)C(O)C(O)C(=O)O` (centres undefined), the TGI in the experiment on CAKI-1 renal, in the experiment with IGROV1 ovarian, in the experiment on LOX IMVI melanoma, in the experiment on MOLT-4 leukemia, in the experiment with NCI-H460 lung and with OVCAR-5 ovarian was above 100 µM in each case. For the same compound, the TGI in the experiment on PC-3 prostate, in the experiment with SK-MEL-5 melanoma and in the experiment with UACC-62 melanoma was above 100 µM in each case.
Take `Nc1cc(S(=O)(=O)O)cc2ccc(S(=O)(=O)O)cc12`: the TGI in the experiment on CAKI-1 renal, with IGROV1 ovarian, in the experiment with LOX IMVI melanoma, in the experiment on NCI-H460 lung, with OVCAR-5 ovarian and in the experiment on PC-3 prostate was above 100 µM each time. The TGI in the experiment with SK-MEL-5 melanoma, in the experiment with TK-10 renal and in the experiment on UACC-62 melanoma was above 100 µM each time.
In the case of `O=S(=O)(O)c1ccc2c(N=Nc3ccc(N=Nc4ccccc4)cc3)c(O)c(S(=O)(=O)O)cc2c1`, the TGI with CAKI-1 renal, in the experiment with IGROV1 ovarian, with MOLT-4 leukemia, with NCI-H460 lung, in the experiment with OVCAR-5 ovarian and in the experiment with PC-3 prostate was above 100 µM throughout. The TGI in the experiment on SK-MEL-5 melanoma, with TK-10 renal and with UACC-62 melanoma was above 100 µM each time.
With `CCN1CCN(c2nc3ccccc3nc2C(=O)c2ccc(OC)c(OC)c2)CC1`, the TGI in the experiment on CAKI-1 renal is above 100 µM; with IGROV1 ovarian, 32.9 µM; with LOX IMVI melanoma, 26.2 µM; in the experiment on MOLT-4 leukemia it was 30.5 µM; in the experiment with NCI-H460 lung it was 50.2 µM; in the experiment with OVCAR-5 ovarian it was above 100 µM. Further, the TGI with PC-3 prostate is above 100 µM; with TK-10 renal, 87.5 µM; with UACC-62 melanoma it was above 100 µM.
